# Data taken from EP4311830A1 (King Faisal Specialist Hospital & Research Centre, priority 2022, dated 2024).
# How the values were obtained:
# Type in all cases: cell-based
# [1] = tested on: OV-2774; test: Cytotoxicity assay (WST1); settings: Ovarian, OV-2774, WST1
# Protocol: (§1) 5,000 cells/well were seeded in 96-well plates with appropriate culture media. After cells treatment, WST-1 reagent (Sigma-Aldrich) was added to each well according to the manufacturer's instructions. These experiments were performed in triplicates and were repeated several times.
# [2] = tested on: HCT-116; test: Cytotoxicity assay (WST1); settings: Colon, HCT-116, WST1
# Protocol: as §1
# [3] = tested on: CSC (MDA-MB-231); test: WST1 cytotoxicity on pre-formed tumorspheres (cancer stem cells); settings: cisplatin 50 µM for 24 h, MDA-MB-231 tumorspheres
# Protocol: (§2) It is well known that cancer stem cells are the most resistant type of cells, which are responsible for recurrence and metastasis (Garcia-Mayea et al., 2020). Therefore, we decided to investigate the effect of eugenoplatin on the self-renewal ability and sternness capacity of cancer cells. To this end, cancer cells were first either sham-treated (DMSO) or challenged with eugenoplatin (3 µM) for 24 h, and then were incubated in 96 well ultra-low attachment plates in the presence of stem cells culture medium. After 10 days, the formed spheroids with a dimeter ≥ 100 µm were counted (Fig. 6A).
# as §1
# (§3) Cells were seeded in 96 well ultra-low attachment plate at a density of 1000 viable cells/well. Cells were cultured in 171 medium supplemented with 1% ABM, 2% B-27, 20 ng/mL EGF, 500 ng/ml HC, 4% FBS and 5 µg/ml insulin. Cells were incubated for 10 days at 37°C under 5% CO2. Mammospheres with a diameter of ≥100 µm were counted using OPTIKA light microscope.
# [4] = tested on: CSC (MG-64); test: as above; settings: cisplatin 50 µM for 24 h, MG-64 tumorspheres
# Protocol: as §2, §1, §3
# [5] = tested on: A1235; test: Cytotoxicity assay (WST1); settings: Glioblastoma
# Protocol: as §1
# [6] = tested on: Cal62; test: Cytotoxicity assay (WST1); settings: Thyroid
# Protocol: as §1
# [7] = tested on: H-1937; test: Cytotoxicity assay (WST1); settings: Lung, H-1937, WST1
# Protocol: as §1
# [8] = tested on: MG-64; test: Cytotoxicity assay (WST1); settings: Osteosarcoma, MG-64, WST1
# Protocol: as §1
# [9] = tested on: human fibroblast cells (HFSN1); test: γ-H2AX immunofluorescence (DNA damage); settings: cisplatin 50 µM for 24 h
# Protocol: Since cisplatin is a DNA damaging chemotherapeutic drug, we investigated whether eugenoplatin can also promote DNA damage in cells. […] To confirm this, we assessed the level of the phosphorylated form of p53 (P.p53) in eugenoplatin-treated cells. […] This was accompanied by a late increase in the level of the p53 target p21 (Fig. 7B).
# HFSN1 cells were fixed in formaldehyde (4%) for 19 minutes and blocked with Goat serum (5%), triton X (0.3%) and 1% sodium azide (5%) for 1 hour. The slides were then stained overnight at 4 °C with γ-H2AX antibody (pSer139) (Novusibio) that diluted in BSA (1%), triton X (0.3%) and 1 % sodium azide (5%), and subsequently incubated with alexa flour 594-conjugated goat anti-rabbit IgG and DAPI for 1 hour. Images were acquired using fluorescence microscope (Zeiss).
smiles,measurement,setting,value
N.N.O=C([O-])C1(C(=O)[O-])CCC1.[Pt+2] [Carboplatin],IC50,[1],53.3 ± 0.67 µM
O=C(O)C(=O)O.[NH-][C@@H]1CCCC[C@H]1[NH-].[Pt+2] [Oxaliplatin],IC50,[2],3.17 ± 0.52 µM
"N.N.[Cl][Pt][Cl] [Cisplatin, (SP-4-2)-diamminedichloridoplatinum(II)]",proportion of survival CSC,[3],not affected
same,proportion of survival CSC,[4],not affected
same,IC50,[5],55.8 ± 18.2 µM
same,IC50,[6],25.7 ± 2.19 µM
same,IC50,[7],67.8 ± 7.75 µM
same,IC50,[8],26 ± 4 µM
same,γ-H2AX immunostaining,[9],strong nuclear staining
